Source: the NIST ThermoML archive (doi:10.1016/j.jct.2017.12.023)
± gives the expanded uncertainty stated by the source.

Columns and labels:
[1] = refractive index (Na D-line) (dimensionless); details: 100 kPa, Liquid, Standard Abbe refractometry
[2] = Liquid; for viscosity / mass density: 100 kPa; for viscosity: Concentric cylinders viscometry; for mass density: Vibrating tube method; for thermal conductivity: 101.33 kPa, transient hot wire
[3] = xn = mol fraction of the nth substance listed; details: 100 kPa, Liquid, x2 = 0; for viscosity: Concentric cylinders viscometry; for mass density: Vibrating tube method
[4] = refractive index (Na D-line) (dimensionless); xn = mol fraction of the nth substance listed; details: 100 kPa, Liquid, Standard Abbe refractometry, x2 = 0

With `CCOS(=O)(=O)[O-].CCn1cc[n+](C)c1` [1-ethyl-3-methylimidazolium ethyl sulfate] the refractive index ([1]; 288.15 K) was 1.48155 ± 0.00069, the refractive index ([1]; 293.15 K) was 1.48018 ± 0.00069 and the refractive index ([1]; 298.15 K) was 1.47882 ± 0.00069. It also gave a refractive index ([1]; 303.15 K) of 1.47746 ± 0.00069, a refractive index ([1]; 308.15 K) of 1.47611 ± 0.00069 and a refractive index ([1]; 313.15 K) of 1.47474 ± 0.00069. For the same molecule, the refractive index ([1]; 318.15 K) was 1.47341 ± 0.00069, the refractive index ([1]; 323.15 K) was 1.47206 ± 0.00069 and the refractive index ([1]; 328.15 K) was 1.47075 ± 0.00069. It also gave a refractive index ([1]; 333.15 K) of 1.46943 ± 0.00069, a viscosity ([2]; 288.15 K) of 155.55 ± 2.7 mPa·s and a mass density ([2]; 288.15 K) of 1243.07 ± 1.6 kg/m3. For the same molecule, the viscosity ([2]; 293.15 K) was 117.88 ± 1.8 mPa·s, the mass density ([2]; 293.15 K) was 1239.66 ± 1.6 kg/m3 and the viscosity ([2]; 298.15 K) was 91.26 ± 1.2 mPa·s. The mass density ([2]; 298.15 K) was 1236.27 ± 1.6 kg/m3, the viscosity ([2]; 303.15 K) was 72.1 ± 0.81 mPa·s and the mass density ([2]; 303.15 K) was 1232.87 ± 1.6 kg/m3. It also gave a thermal conductivity ([2]; 303.15 K) of 0.1808 ± 0.0073 W/m/K, a viscosity ([2]; 308.15 K) of 57.98 ± 0.61 mPa·s and a mass density ([2]; 308.15 K) of 1229.49 ± 1.6 kg/m3. For the same molecule, the thermal conductivity ([2]; 308.15 K) was 0.18 ± 0.0072 W/m/K, the viscosity ([2]; 313.15 K) was 47.26 ± 0.51 mPa·s and the mass density ([2]; 313.15 K) was 1226.13 ± 1.6 kg/m3. It also gave a thermal conductivity ([2]; 313.15 K) of 0.1795 ± 0.0072 W/m/K, a viscosity ([2]; 318.15 K) of 39.25 ± 0.42 mPa·s and a mass density ([2]; 318.15 K) of 1222.79 ± 1.6 kg/m3. The thermal conductivity ([2]; 318.15 K) was 0.1787 ± 0.0072 W/m/K, the viscosity ([2]; 323.15 K) was 32.94 ± 0.35 mPa·s and the mass density ([2]; 323.15 K) was 1219.46 ± 1.6 kg/m3. It also gave a thermal conductivity ([2]; 323.15 K) of 0.178 ± 0.0072 W/m/K, a viscosity ([2]; 328.15 K) of 27.96 ± 0.3 mPa·s and a mass density ([2]; 328.15 K) of 1216.16 ± 1.6 kg/m3. For the same molecule, the viscosity ([2]; 333.15 K) was 24.09 ± 0.26 mPa·s and the mass density ([2]; 333.15 K) was 1212.86 ± 1.5 kg/m3.
Work on `CN1CCCC1=O` [N-methylpyrrolidone] + CCOS(=O)(=O)[O-].CCn1cc[n+](C)c1 yielded a viscosity ([3]; 288.15 K) of 1.99 ± 0.023 mPa·s, a mass density ([3]; 288.15 K) of 1037.3 ± 1.5 kg/m3 and a viscosity ([3]; 293.15 K) of 1.823 ± 0.021 mPa·s. It also gave a mass density ([3]; 293.15 K) of 1032.84 ± 1.5 kg/m3, a viscosity ([3]; 298.15 K) of 1.679 ± 0.019 mPa·s and a mass density ([3]; 298.15 K) of 1028.38 ± 1.5 kg/m3. The viscosity ([3]; 303.15 K) was 1.555 ± 0.018 mPa·s, the mass density ([3]; 303.15 K) was 1023.93 ± 1.5 kg/m3 and the viscosity ([3]; 308.15 K) was 1.444 ± 0.017 mPa·s. For the same molecule, the mass density ([3]; 308.15 K) was 1019.46 ± 1.5 kg/m3, the viscosity ([3]; 313.15 K) was 1.346 ± 0.016 mPa·s and the mass density ([3]; 313.15 K) was 1015 ± 1.5 kg/m3. The viscosity ([3]; 318.15 K) was 1.259 ± 0.015 mPa·s, the mass density ([3]; 318.15 K) was 1010.53 ± 1.5 kg/m3 and the viscosity ([3]; 323.15 K) was 1.182 ± 0.014 mPa·s. It also gave a mass density ([3]; 323.15 K) of 1006.06 ± 1.5 kg/m3, a viscosity ([3]; 328.15 K) of 1.11 ± 0.013 mPa·s and a mass density ([3]; 328.15 K) of 1001.58 ± 1.5 kg/m3. The viscosity ([3]; 333.15 K) was 1.043 ± 0.013 mPa·s, the mass density ([3]; 333.15 K) was 997.1 ± 1.5 kg/m3 and the refractive index ([4]; 288.15 K) was 1.47166 ± 0.00069. For the same molecule, the refractive index ([4]; 293.15 K) was 1.46952 ± 0.00069, the refractive index ([4]; 298.15 K) was 1.46736 ± 0.00069 and the refractive index ([4]; 303.15 K) was 1.4652 ± 0.00069. For the same molecule, the refractive index ([4]; 308.15 K) was 1.46306 ± 0.00069, the refractive index ([4]; 313.15 K) was 1.46095 ± 0.00069 and the refractive index ([4]; 318.15 K) was 1.45891 ± 0.00069. It also gave a refractive index ([4]; 323.15 K) of 1.4568 ± 0.00069, a refractive index ([4]; 328.15 K) of 1.45473 ± 0.00069 and a refractive index ([4]; 333.15 K) of 1.45267 ± 0.00069.
For `CCCCCCO` [hexan-1-ol], the refractive index ([1]; 288.15 K) was 1.41986 ± 0.00069, the refractive index ([1]; 293.15 K) was 1.4179 ± 0.00069 and the refractive index ([1]; 298.15 K) was 1.41591 ± 0.00069. It also gave a refractive index ([1]; 303.15 K) of 1.41386 ± 0.00069, a refractive index ([1]; 308.15 K) of 1.41182 ± 0.00069 and a refractive index ([1]; 313.15 K) of 1.40981 ± 0.00069. For the same molecule, the refractive index ([1]; 318.15 K) was 1.40779 ± 0.00069, the refractive index ([1]; 323.15 K) was 1.40574 ± 0.00069 and the viscosity ([2]; 288.15 K) was 6.297 ± 0.068 mPa·s. It also gave a mass density ([2]; 288.15 K) of 822.26 ± 1.5 kg/m3, a viscosity ([2]; 293.15 K) of 5.324 ± 0.058 mPa·s and a mass density ([2]; 293.15 K) of 818.69 ± 1.5 kg/m3. For the same molecule, the viscosity ([2]; 298.15 K) was 4.53 ± 0.049 mPa·s, the mass density ([2]; 298.15 K) was 815.11 ± 1.5 kg/m3 and the viscosity ([2]; 303.15 K) was 3.889 ± 0.043 mPa·s. The mass density ([2]; 303.15 K) was 811.51 ± 1.5 kg/m3, the viscosity ([2]; 308.15 K) was 3.355 ± 0.037 mPa·s and the mass density ([2]; 308.15 K) was 807.88 ± 1.5 kg/m3. The viscosity ([2]; 313.15 K) was 2.912 ± 0.032 mPa·s, the mass density ([2]; 313.15 K) was 804.23 ± 1.5 kg/m3 and the viscosity ([2]; 318.15 K) was 2.541 ± 0.028 mPa·s. For the same molecule, the mass density ([2]; 318.15 K) was 800.56 ± 1.5 kg/m3, the viscosity ([2]; 323.15 K) was 2.251 ± 0.025 mPa·s and the mass density ([2]; 323.15 K) was 796.85 ± 1.5 kg/m3.
Work on `CCCCCCO` [hexan-1-ol] + CCOS(=O)(=O)[O-].CCn1cc[n+](C)c1 yielded a viscosity ([3]; 288.15 K) of 6.297 ± 0.068 mPa·s, a mass density ([3]; 288.15 K) of 822.26 ± 1.5 kg/m3 and a viscosity ([3]; 293.15 K) of 5.324 ± 0.058 mPa·s. It also gave a mass density ([3]; 293.15 K) of 818.69 ± 1.5 kg/m3, a viscosity ([3]; 298.15 K) of 4.53 ± 0.049 mPa·s and a mass density ([3]; 298.15 K) of 815.11 ± 1.5 kg/m3. For the same molecule, the viscosity ([3]; 303.15 K) was 3.889 ± 0.043 mPa·s, the mass density ([3]; 303.15 K) was 811.51 ± 1.5 kg/m3 and the viscosity ([3]; 308.15 K) was 3.355 ± 0.037 mPa·s. For the same molecule, the mass density ([3]; 308.15 K) was 807.88 ± 1.5 kg/m3, the viscosity ([3]; 313.15 K) was 2.912 ± 0.032 mPa·s and the mass density ([3]; 313.15 K) was 804.23 ± 1.5 kg/m3. It also gave a viscosity ([3]; 318.15 K) of 2.541 ± 0.028 mPa·s, a mass density ([3]; 318.15 K) of 800.56 ± 1.5 kg/m3 and a viscosity ([3]; 323.15 K) of 2.251 ± 0.025 mPa·s. It also gave a mass density ([3]; 323.15 K) of 796.85 ± 1.5 kg/m3, a refractive index ([4]; 288.15 K) of 1.41986 ± 0.00069 and a refractive index ([4]; 293.15 K) of 1.4179 ± 0.00069. For the same molecule, the refractive index ([4]; 298.15 K) was 1.41591 ± 0.00069, the refractive index ([4]; 303.15 K) was 1.41386 ± 0.00069 and the refractive index ([4]; 308.15 K) was 1.41182 ± 0.00069. For the same molecule, the refractive index ([4]; 313.15 K) was 1.40981 ± 0.00069, the refractive index ([4]; 318.15 K) was 1.40779 ± 0.00069 and the refractive index ([4]; 323.15 K) was 1.40574 ± 0.00069.
